Results from article PMC10158552 (Biomedicine & Pharmacotherapy, 2023).

System: SARS-CoV-2 Delta
Type: cell-based
Settings: 346 µM compounds, 480 µg/ml antibodies

Row | Substance | viral replication of SARS-CoV-2, basal treatment
1 | Casirivimab: monoclonal Ab administered intravenously in patients, used as positive control (Roche) | show an antiviral effect
2 | Imdevimab: monoclonal Ab administered intravenously in patients, used as positive control (Roche) | show an antiviral effect
